From patent US10645928B2, “Pesticidally active polycyclic derivatives with sulfur containing substituents” (Syngenta Participations AG, priority 2014, dated 2020)

Legend:
Format in all cases: in vivo
[1] = tested on: Diabrotica balteata (Corn Root Worm); test: Example B2: Diabrotica balteata, sprayed maize sprouts, mortality and growth inhibition; conditions: 96 h, application rate of 200 ppm, L2 larvae, 4 days after infestation, read-out: effect in at least one of the two categories (mortality or growth inhibition)
Method: Maize sprouts placed onto an agar layer in 24-well microtiter plates were treated with aqueous test solutions prepared from 10,000 ppm DMSO stock solutions by spraying. After drying, the plates were infested with L2 larvae (6 to 10 per well). The samples were assessed for mortality and growth inhibition in comparison to untreated samples 4 days after infestation.

[2] = tested on: Plutella xylostella (Diamond Back Moth); test: Example B12: Plutella xylostella, treated artificial diet, mortality; conditions: 120 h, application rate of 200 ppm, L2 larvae, 5 days after infestation
Method: 24-well microtiter plates with artificial diet were treated with aqueous test solutions prepared from 10,000 ppm DMSO stock solutions by pipetting. After drying, the plates were infested with L2 larvae (10 to 15 per well). The samples were assessed for mortality 5 days after infestation.

[3] = tested on: Diabrotica balteata (Corn Root Worm); test: Example B3: Diabrotica balteata, sprayed maize sprouts, mortality; conditions: 96 h, application rate of 200 ppm, L2 larvae, 4 days after infestation
Method: Maize sprouts placed onto an agar layer in 24-well microtiter plates were treated with aqueous test solutions prepared from 10,000 ppm DMSO stock solutions by spraying. After drying, the plates were infested with L2 larvae (6 to 10 per well). The samples were assessed for mortality 4 days after infestation.

[4] = tested on: Frankliniella occidentalis (Western Flower Thrips); test: Example B7: Frankliniella occidentalis, sprayed sunflower leaf discs, mortality; conditions: foliar, 168 h, application rate of 200 ppm, population of mixed ages, 7 days after infestation
Method: Sunflower leaf discs were placed on agar in 24-well microtiter plates and sprayed with aqueous test solutions prepared from 10,000 DMSO stock solutions. After drying the leaf discs were infested with a Frankliniella population of mixed ages. The samples were assessed for mortality 7 days after infestation.

[5] = tested on: Spodoptera littoralis (Egyptian Cotton Leaf Worm); test: Example B16: Spodoptera littoralis, sprayed cotton leaf discs, mortality; conditions: foliar, 72 h, application rate of 200 ppm, L1 larvae, 3 days after infestation
Method: Cotton leaf discs were placed onto agar in 24-well microtiter plates and sprayed with aqueous test solutions prepared from 10,000 ppm DMSO stock solutions. After drying the leaf discs were infested with five L1 larvae. The samples were assessed for mortality 3 days after infestation.

[6] = tested on: Plutella xylostella (Diamond Back Moth); test: Example B13: Plutella xylostella, treated artificial diet, mortality and growth inhibition; conditions: 120 h, application rate of 200 ppm, L2 larvae, 5 days after infestation, read-out: effect in at least one of the two categories (mortality or growth inhibition)
Method: 24-well microtiter plates with artificial diet were treated with aqueous test solutions prepared from 10,000 ppm DMSO stock solutions by pipetting. After drying, the plates were infested with L2 larvae (10 to 15 per well). The samples were assessed for mortality and growth inhibition in comparison to untreated samples 5 days after infestation.

[7] = tested on: Euschistus heros (Neotropical Brown Stink Bug); test: Example B4: Euschistus heros, sprayed soybean leaves, growth inhibition; conditions: 120 h, application rate of 200 ppm, N2 nymphs, 5 days after infestation
Method: Soybean leaves on agar in 24-well microtiter plates were sprayed with aqueous test solutions prepared from 10,000 ppm DMSO stock solutions. After drying the leaves were infested with N2 nymphs. The samples were assessed for growth inhibition in comparison to untreated samples 5 days after infestation. Control of Euschistus heros by a test sample is given when the growth inhibition is higher than the untreated sample.

[8] = tested on: Spodoptera littoralis (Egyptian Cotton Leaf Worm); test: Example B19: Spodoptera littoralis, compound in agar absorbed by lettuce roots, anti-feedant effect; conditions: 144 h, test rate of 12.5 ppm, uptake by lettuce roots, Spodoptera eggs, 6 days after infestation, read-out: anti-feeding
Description: (§1) Test compounds were applied by pipette prepared from 10,000 ppm DMSO stock solutions into 24-well plates and mixed with agar. Lettuce seeds were placed onto the agar and the multi well plate was closed by another plate which contained also agar. After 7 days the compound was absorbed by the roots and the lettuce grew into the lid plate. The lettuce leaves were then cut off into the lid plate. Spodoptera eggs were pipetted through a plastic stencil onto a humid gel blotting paper and the lid plate was closed with it. The samples were assessed for anti-feedant effect in comparison to untreated samples 6 days after infestation.

[9] = tested on: Spodoptera littoralis (Egyptian Cotton Leaf Worm); test: Example B14: Spodoptera littoralis, sprayed cotton leaf discs, anti-feeding effect; conditions: foliar, 72 h, application rate of 200 ppm, L1 larvae, 3 days after infestation
Method: Cotton leaf discs were placed onto agar in 24-well microtiter plates and sprayed with aqueous test solutions prepared from 10,000 ppm DMSO stock solutions. After drying the leaf discs were infested with five L1 larvae. The samples were assessed for anti-feeding effect in comparison to untreated samples 3 days after infestation. Control of Spodoptera littoralis by a test sample is given when the anti-feedant effect is higher than the untreated sample.

[10] = tested on: Spodoptera littoralis (Egyptian Cotton Leaf Worm); test: Example B17: Spodoptera littoralis, sprayed cotton leaf discs, mortality, anti-feeding effect and growth inhibition; conditions: foliar, 72 h, application rate of 200 ppm, L1 larvae, 3 days after infestation, read-out: control (at least one of mortality, anti-feedant effect, growth inhibition)
Method: Cotton leaf discs were placed onto agar in 24-well microtiter plates and sprayed with aqueous test solutions prepared from 10,000 ppm DMSO stock solutions. After drying the leaf discs were infested with five L1 larvae. The samples were assessed for mortality, anti-feeding effect, and growth inhibition in comparison to untreated samples 3 days after infestation. Control of Spodoptera littoralis by a test sample is given when at least one of the categories mortality, anti-feedant effect, and growth inhibition is higher than the untreated sample.

[11] = tested on: Euschistus heros (Neotropical Brown Stink Bug); test: Example B5: Euschistus heros, sprayed soybean leaves, mortality; conditions: 120 h, application rate of 200 ppm, N2 nymphs, 5 days after infestation
Method: Soybean leaves on agar in 24-well microtiter plates were sprayed with aqueous test solutions prepared from 10,000 ppm DMSO stock solutions. After drying the leaves were infested with N2 nymphs. The samples were assessed for mortality 5 days after infestation.

[12] = tested on: Spodoptera littoralis (Egyptian Cotton Leaf Worm); test: Example B20: Spodoptera littoralis, compound in agar absorbed by lettuce roots, mortality; conditions: 144 h, test rate of 12.5 ppm, uptake by lettuce roots, Spodoptera eggs, 6 days after infestation
Description: Test compounds were applied by pipette prepared from 10,000 ppm DMSO stock solutions into 24-well plates and mixed with agar. Lettuce seeds were placed onto the agar and the multi well plate was closed by another plate which contained also agar. After 7 days the compound was absorbed by the roots and the lettuce grew into the lid plate. The lettuce leaves were then cut off into the lid plate.
Spodoptera eggs were pipetted through a plastic stencil onto a humid gel blotting paper and the lid plate was closed with it. The samples were assessed for mortality 6 days after infestation.

[13] = tested on: Spodoptera littoralis (Egyptian Cotton Leaf Worm); test: Example B18: Spodoptera littoralis, compound in agar absorbed by lettuce roots, mortality, anti-feedant effect and growth inhibition; conditions: 144 h, test rate of 12.5 ppm, uptake by lettuce roots, Spodoptera eggs, 6 days after infestation, read-out: effect in at least one of the three categories (mortality, anti-feeding, or growth inhibition)
Description: as §1, with “pipette” for “pipette prepared”, “for mortality,” for “for”, “effect and growth inhibition” for “effect”

[14] = tested on: Euschistus heros (Neotropical Brown Stink Bug); test: Example B6: Euschistus heros, sprayed soybean leaves, mortality and growth inhibition; conditions: 120 h, application rate of 200 ppm, N2 nymphs, 5 days after infestation, read-out: effect in at least one of the two categories (mortality or growth inhibition)
Method: Soybean leaves on agar in 24-well microtiter plates were sprayed with aqueous test solutions prepared from 10,000 ppm DMSO stock solutions. After drying the leaves were infested with N2 nymphs. The samples were assessed for mortality and growth inhibition in comparison to untreated samples 5 days after infestation.

[15] = tested on: Myzus persicae (Green Peach Aphid); test: Example B8: Myzus persicae, sprayed sunflower leaf discs, mortality; conditions: foliar, 144 h, application rate of 200 ppm, leaf disc spray, aphid population of mixed ages, 6 days after infestation
Method: Sunflower leaf discs were placed onto agar in a 24-well microtiter plate and sprayed with aqueous test solutions prepared from 10,000 ppm DMSO stock solutions. After drying, the leaf discs were infested with an aphid population of mixed ages. The samples were assessed for mortality 6 days after infestation.

[16] = tested on: Plutella xylostella (Diamond Back Moth); test: Example B10: Plutella xylostella, treated artificial diet, growth inhibition; conditions: 120 h, application rate of 200 ppm, L2 larvae, 5 days after infestation
Method: 24-well microtiter plates with artificial diet were treated with aqueous test solutions prepared from 10,000 ppm DMSO stock solutions by pipetting. After drying, the plates were infested with L2 larvae (10 to 15 per well). The samples were assessed for growth inhibition in comparison to untreated samples 5 days after infestation. Control of Plutella xylostella by a test sample is given when the growth inhibition is higher than the untreated sample.

[17] = tested on: Spodoptera littoralis (Egyptian Cotton Leaf Worm); test: Example B15: Spodoptera littoralis, sprayed cotton leaf discs, growth inhibition; conditions: foliar, 72 h, application rate of 200 ppm, L1 larvae, 3 days after infestation, read-out: control (growth inhibition)
Method: Cotton leaf discs were placed onto agar in 24-well microtiter plates and sprayed with aqueous test solutions prepared from 10,000 ppm DMSO stock solutions. After drying the leaf discs were infested with five L1 larvae. The samples were assessed for growth inhibition in comparison to untreated samples 3 days after infestation. Control of Spodoptera littoralis by a test sample is given when the growth inhibition is higher than the untreated sample.

[18] = tested on: Bemisia tabaci (Cotton White Fly); test: Example B1: Bemisia tabaci, sprayed cotton leaf discs, mortality; conditions: foliar, 144 h, application rate of 200 ppm, adult white flies, 6 days after incubation
Method: Cotton leaf discs were placed on agar in 24-well microtiter plates and sprayed with aqueous test solutions prepared from 10,000 ppm DMSO stock solutions. After drying the leaf discs were infested with adult white flies. The samples were checked for mortality 6 days after incubation.

[19] = tested on: Aedes aegypti (Yellow Fever Mosquito); test: Example B23: Aedes aegypti, dry deposits in 12 well tissue culture plates, control; conditions: application rate of 200 ppm in ethanol, adult females, after 48 h and/or 24 h
Method: Test solutions, at an application rate of 200 ppm in ethanol, were applied to 12 well tissue culture plates. Once the deposits were dry, five, two to five day old adult female Aedes aegypti were added to each well, and sustained with a 10% sucrose solution in a cotton wool plug. Assessment of knockdown was made one hour after introduction, and mortality was assessed at 24 and 48 hours after introduction.

CCS(=O)(=O)c1cc(-c2ccc(Cl)cc2)cnc1-c1cn2cnc(C(F)(F)F)cc2n1 [Compound P5, 2-[5-(4-chlorophenyl)-3-ethylsulfonyl-2-pyridyl]-7-(trifluoromethyl)imidazo [1,2-c]pyrimidine]
≥ 80%: percent effect (mortality or growth inhibition) at 200 ppm [1] | mortality at 200 ppm [2] | mortality at 200 ppm [3] | mortality at 200 ppm [4] | mortality at 200 ppm [5] | percent effect (mortality or growth inhibition) at 200 ppm [6] | inhibition at 200 ppm [7] | pest or weed control at 12.5 ppm [8] | pest or weed control at 200 ppm [9] | percent control (mortality, anti-feedant effect or growth inhibition) at 200 ppm [10] | mortality at 200 ppm [11] | mortality at 12.5 ppm [12] | percent effect (mortality, anti-feeding or growth inhibition) at 12.5 ppm [13] | percent effect (mortality or growth inhibition) at 200 ppm [14]

CCS(=O)(=O)c1cc(C2(C#N)CC2)cnc1-c1cn2cnc(C(F)(F)F)cc2n1 [Compound P8, 1-[5-ethylsulfonyl-6-[7-(trifluoromethyl)imidazo[1,2-c]pyrimidin-2-yl]-3-pyridyl]cyclopropanecarbonitrile]
≥ 80%: mortality at 200 ppm [15] | percent effect (mortality or growth inhibition) at 200 ppm [1] | mortality at 200 ppm [2] | inhibition at 200 ppm [16] | mortality at 200 ppm [3] | mortality at 200 ppm [5] | percent effect (mortality or growth inhibition) at 200 ppm [6] | inhibition at 200 ppm [17] | inhibition at 200 ppm [7] | pest or weed control at 200 ppm [9] | percent control (mortality, anti-feedant effect or growth inhibition) at 200 ppm [10] | mortality at 200 ppm [11] | percent effect (mortality or growth inhibition) at 200 ppm [14]

CCS(=O)(=O)c1cc(-c2ccc(C#N)cc2)cnc1-c1cn2cnc(C(F)(F)F)cc2n1 [Compound P10]
≥ 80%: percent effect (mortality or growth inhibition) at 200 ppm [1] | mortality at 200 ppm [2] | mortality at 200 ppm [3] | mortality at 200 ppm [4] | mortality at 200 ppm [5] | percent effect (mortality or growth inhibition) at 200 ppm [6] | inhibition at 200 ppm [17] | mortality at 200 ppm [18] | pest or weed control at 200 ppm [9] | percent control (mortality, anti-feedant effect or growth inhibition) at 200 ppm [10]

CCS(=O)(=O)c1cc(C2CC2)cnc1-c1cn2cnc(C(F)(F)F)cc2n1 [Compound P16, 2-(5-cyclopropyl-3-ethylsulfonyl-2-pyridyl)-7-(trifluoromethyl)imidazo [1,2-c]pyrimidine]
≥ 80%: mortality at 200 ppm [15] | percent effect (mortality or growth inhibition) at 200 ppm [1] | mortality at 200 ppm [2] | inhibition at 200 ppm [16] | mortality at 200 ppm [3] | mortality at 200 ppm [4] | mortality at 200 ppm [5] | percent effect (mortality or growth inhibition) at 200 ppm [6] | inhibition at 200 ppm [17] | pest or weed control at 200 ppm [19] | pest or weed control at 200 ppm [9] | percent control (mortality, anti-feedant effect or growth inhibition) at 200 ppm [10] | mortality at 200 ppm [11] | percent effect (mortality or growth inhibition) at 200 ppm [14]
